The numbers were not newly measured in patent US7704724B1 (priority 2006, dated 2010), which cites them from elsewhere.

In data set [1] the target is Jack Bean urease (Canavalia ensiformis, UniProt P07374). The conditions noted are these: read-out: fluoride inhibition constant (Ki).
Data set [2] addresses urease from Klebsiella aerogenes (Klebsiella aerogenes, UniProt P18314). The conditions noted are these: read-out: fluoride inhibition constant (Ki).

Sequence of urease from Klebsiella aerogenes (P18314 whole entry): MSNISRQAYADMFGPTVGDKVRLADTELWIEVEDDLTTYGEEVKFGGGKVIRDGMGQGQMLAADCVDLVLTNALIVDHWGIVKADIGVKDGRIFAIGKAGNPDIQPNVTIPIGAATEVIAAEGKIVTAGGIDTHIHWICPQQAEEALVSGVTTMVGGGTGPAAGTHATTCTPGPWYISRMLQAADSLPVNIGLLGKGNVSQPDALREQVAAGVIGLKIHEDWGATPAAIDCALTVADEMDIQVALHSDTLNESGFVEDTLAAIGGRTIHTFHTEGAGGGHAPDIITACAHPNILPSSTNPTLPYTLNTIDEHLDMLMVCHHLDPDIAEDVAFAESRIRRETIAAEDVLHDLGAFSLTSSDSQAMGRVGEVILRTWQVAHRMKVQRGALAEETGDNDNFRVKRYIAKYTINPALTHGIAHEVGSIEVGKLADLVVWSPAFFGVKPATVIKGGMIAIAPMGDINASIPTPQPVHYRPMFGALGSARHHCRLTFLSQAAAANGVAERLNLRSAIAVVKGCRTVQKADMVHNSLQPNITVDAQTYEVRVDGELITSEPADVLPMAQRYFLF
Sequence of urease from Klebsiella aerogenes (P18315 whole entry partner): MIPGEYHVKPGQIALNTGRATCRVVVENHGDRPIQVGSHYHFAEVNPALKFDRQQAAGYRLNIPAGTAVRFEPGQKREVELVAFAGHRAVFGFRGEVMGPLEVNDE
Sequence of urease from Klebsiella aerogenes (P18316 whole entry partner): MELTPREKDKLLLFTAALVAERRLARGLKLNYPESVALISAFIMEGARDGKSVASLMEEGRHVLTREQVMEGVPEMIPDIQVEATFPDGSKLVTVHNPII
Sequence of Jack Bean urease (P07374 whole entry, looked up): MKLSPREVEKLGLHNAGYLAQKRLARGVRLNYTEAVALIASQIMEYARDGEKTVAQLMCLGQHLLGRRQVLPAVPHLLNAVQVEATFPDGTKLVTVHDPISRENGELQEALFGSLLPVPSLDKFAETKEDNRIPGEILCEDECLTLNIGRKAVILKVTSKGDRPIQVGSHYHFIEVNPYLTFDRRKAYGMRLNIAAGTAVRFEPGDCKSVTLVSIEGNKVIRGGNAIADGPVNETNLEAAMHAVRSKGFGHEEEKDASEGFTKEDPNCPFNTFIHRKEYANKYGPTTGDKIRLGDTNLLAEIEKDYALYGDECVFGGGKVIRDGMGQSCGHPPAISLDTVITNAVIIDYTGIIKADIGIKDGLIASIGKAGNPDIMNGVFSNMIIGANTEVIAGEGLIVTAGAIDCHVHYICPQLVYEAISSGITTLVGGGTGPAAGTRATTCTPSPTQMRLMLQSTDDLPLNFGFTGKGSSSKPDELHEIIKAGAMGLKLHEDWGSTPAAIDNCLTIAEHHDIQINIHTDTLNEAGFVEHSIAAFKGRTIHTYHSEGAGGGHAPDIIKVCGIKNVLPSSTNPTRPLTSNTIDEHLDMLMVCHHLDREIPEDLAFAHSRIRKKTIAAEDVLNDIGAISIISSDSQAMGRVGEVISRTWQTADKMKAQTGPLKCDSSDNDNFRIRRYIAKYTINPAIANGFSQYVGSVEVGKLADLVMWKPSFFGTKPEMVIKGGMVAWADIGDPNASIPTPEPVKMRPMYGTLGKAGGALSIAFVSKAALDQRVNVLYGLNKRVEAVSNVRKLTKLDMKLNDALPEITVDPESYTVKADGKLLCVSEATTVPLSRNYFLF

Consider `F` [fluoride], for which the Ki in data set [1] was 1000 µM; in data set [2] it was 200 µM.

In general, Ki refers to the dissociation constant of the complex between target and ligand, obtained from inhibition or displacement.
